From PMC11111408, “Concurrent inhibition of oncogenic and wild-type RAS-GTP for cancer therapy” (Nature, 2024)
“And” between values parts separate entries of the source, which are not always exact repeats. Equal values may be shown once.

Experiments:
[1] = system: AsPC-1 and NCI-H441 cells; assay: pERK (MSD) and proliferation (CTG) in AsPC-1 and NCI-H441 cells, CYPA inhibitor co-treatment or PPIA KO; format: cell-based, human;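 for Proliferation inhibition with CYPA inhibitor competition: luminescence as % of CYPA inhibitor-only control with 3 mM sanglifehrin A competitor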
RAS-less MEFs = assay: Western blots of isogenic RAS-less MEF cells expressing KRAS variants or BRAF(V600E); format: cell-based, mouse; details: 24 h, western blot
A375 cells = assay: Cell proliferation (CTG); format: cell-based, human
Description: Alternatively, cells were seeded in round-bottom ultra-low attachment 96-well plates, centrifuged at 1,000 rpm for 10 min to pellet the cells, and incubated overnight or up to 72 h to allow for 3D spheroid formation. […] Cell viability was determined by CellTiter-Glo 2.0 reagent (2D CTG) (Promega, G9243) or 3D CellTiter-Glo reagent (3D CTG) (Promega, G9683) according to the manufacturer’s protocols. Luminescence was detected using a SpectraMax M5 Plate Reader (Molecular Devices) of Perkin Elmer Enspire. Luminescence signal was normalized to vehicle-treated wells (normalized signal (%) = (luminescence (treated)/mean luminescence (vehicle)) × 100%). […] Data were plotted as log [inhibitor (M)], and a four-parameter sigmoidal concentration response model was fitted to the data to calculate EC50. […] Pa16C MEK1 mutant cells were evaluated by live-cell counting using Calcein AM and a SpectraMax i3X multi-mode detection platform (Molecular Devices). Growth percentages were calculated by normalizing the treated cell counts to their respective untreated cell counts.

GMPPNP–KRAS = biological target: T1, GMPPNP–KRAS (Homo sapiens, UniProt P01116, G12C); assay: SPR binding of RMC-7977 to KRAS in the absence of CYPA; details: compound alone without CYPA
T1 construct: His6-TEV (N); made in house; host or cells: E. coli BL21(DE3)

[2] = system: KRAS^G12D PDAC cell lines; assay: Western blot time course of RAS signalling in KRAS^G12D PDAC cell lines; format: cell-based, human; details: KRAS^G12D PDAC cells in culture, 2 h to 48 h
Description: Total ERK and vinculin were used as loading controls. […] Source Data
Cells were lysed with MSD Tris Lysis Buffer (MSD, R60TX-2) or a buffer of 1% Triton X-100, 20 mM Tris-HCl, 150 mM NaCl, and 1 mM EDTA, both supplemented with protease and phosphatase inhibitors. Lysates were cleared by centrifugation and quantified by BCA assay (Pierce, 23225). […] Image Studio Lite (Version 5.2.5) and Image Lab (Version 6.1.0 build 7) software were used for data analysis.

KRAS^G12A = KRAS^G12A (Homo sapiens, UniProt P01116+P62937, G12A); assay: Biochemical RAS–RAF (BRAF RBD) disruption, TR-FRET
Description: (§1) Time-resolved fluorescence resonance energy transfer (TR-FRET) was used as previously described to assess disruption of the interactions between wild-type RAS or the mutant oncogenic RAS proteins and the RAS-binding domain of BRAF, and to assess the induction of interactions between the RAS proteins and CYPA[12].

NRAS WT = NRAS WT (Homo sapiens, UniProt P01111+P62937); assay: Biochemical RAS–RAF (BRAF RBD) disruption, TR-FRET
Description: as §1

HRAS^G13R = HRAS^G13R (Homo sapiens, UniProt P01112+P62937, G13R); assay: Biochemical RAS–RAF (BRAF RBD) disruption, TR-FRET; details: HRAS^G13R; BRAF RBD; (95% CI); read-out: Biochemical RAS-RAF Disruption EC50
Description: as §1

NRAS^Q61R = NRAS^Q61R (Homo sapiens, UniProt P01111+P62937, Q61R); assay: Biochemical RAS–RAF (BRAF RBD) disruption, TR-FRET; details: (95% CI)
Description: as §1

KRAS–PI3Kα [3] = biological target: T2, KRAS–PI3Kα (Homo sapiens, UniProt P01116, G12V); assay: Cellular nano-BRET, full length PI3Kα binding to KRAS G12C, G12D, G12V; format: cell-based; details: KRAS G12V, in the presence of CYPA, single replicates;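 note: U2OS cells expressing KRAS4B mutants carrying N-terminal nanoluciferase or HaloTag fusions, with nano-BRET signal measured after inhibitor exposure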
T2 construct: expressed in transfected cells; host or cells: U2OS

KRAS–PI3Kα [4] = biological target: T3, KRAS–PI3Kα (Homo sapiens, UniProt P01116, G12C); assay: as above; format: cell-based; details: KRAS G12C, in the presence of CYPA, single replicates
T3 construct: expressed in transfected cells; host or cells: U2OS

KRAS–PI3Kα [5] = biological target: T4, KRAS–PI3Kα (Homo sapiens, UniProt P01116, G12D); assay: as above; format: cell-based; details: KRAS G12D, in the presence of CYPA, single replicates
T4 construct: expressed in transfected cells; host or cells: U2OS

For CCn1c(-c2cc(N3CCN(C4CC4)CC3)cnc2[C@H](C)OC)c2c3cc(ccc31)-c1csc(n1)C[C@H](NC(=O)[C@H]1[C@@H]3COC[C@@H]31)C(=O)N1CCC[C@H](N1)C(=O)OCC(C)(C)C2 [RMC-7977], the activity at 0.3 µM ([1]; Homo sapiens, NCI-H441, read-out: Proliferation inhibition in PPIA KO cells treated with RMC-7977, NCI-H441, 300.00 nM) was 27.5%, the activity at 5.08 pM ([1]; Homo sapiens, NCI-H441, read-out: Proliferation inhibition in PPIA KO cells treated with RMC-7977, NCI-H441, […]) was 120% and the activity at 0.00041 µM ([1]; Homo sapiens, NCI-H441, read-out: pERK inhibition in PPIA KO cells treated with RMC-7977, NCI-H441, 0.41 nM) was 88.1%. For the same compound, the activity at 0.0037 µM ([1]; Homo sapiens, NCI-H441, read-out: pERK inhibition in PPIA KO cells treated with RMC-7977, NCI-H441, 3.70 nM) was 11.8%, the “Proliferation inhibition with CYPA inhibitor competition” value (“Proliferation inhibition” below) ([1]; NCI-H441, RMC-7977 0.0152 nM) was 112.235 and 120.202 and the “pERK signal remaining (% of control) with CYPA inhibitor competition” value ([1]; NCI-H441, RMC-7977 0.0152 nM) was 101.09 and 141.742 and 99.9715 and 108.212. The “Proliferation inhibition” value ([1]; NCI-H441, RMC-7977 0.0457 nM) was 127.307 and 133.477, the “pERK signal remaining (% of control) with CYPA inhibitor competition” value ([1]; NCI-H441, RMC-7977 0.0457 nM) was 116.541 and 138.344 and 94.9151 and 96.9475 and the “Proliferation inhibition” value ([1]; NCI-H441, RMC-7977 0.41 nM) was 83.6742 and 95.5735 and 83.4726 and 112.168. The “Proliferation inhibition” value ([1]; NCI-H441, RMC-7977 3.70 nM) was 34.5277 and 37.2472 and 40.6838 and 40.7762, the “pERK signal remaining (% of control) with CYPA inhibitor competition” value ([1]; NCI-H441, RMC-7977 3.70 nM) was 11.9888 and 19.4005 and 10.392 and 10.3218 and the “Proliferation inhibition” value ([1]; NCI-H441, RMC-7977 11.11 nM) was 26.6151 and 22.9193 and 35.0508 and 37.4802. For the same compound, the “Proliferation inhibition” value ([1]; NCI-H441, RMC-7977 33.33 nM) was 29.0347 and 22.8651 and 29.7232 and 34.4423, the “Proliferation inhibition” value ([1]; NCI-H441, RMC-7977 100.00 nM) was 28.8791 and 27.2758 and 27.7958 and 31.2386 and the “Proliferation inhibition” value ([1]; NCI-H441, RMC-7977 300.00 nM) was 32.3111 and 29.0775 and 27.5922 and 25.4872. The “pERK suppression in RAS-less MEFs” value (RAS-less MEFs) was “suppressed pERK in all KRAS-expressing cells, but not in BRAF(V600E)-expressing RAS-less MEFs”, the inhibition of proliferation (A375 cells; A375, BRAF^V600E, RAS-independent) was “No inhibition” and the EC50 (A375 cells; Homo sapiens, A-375, A375, CTG, (95% CI)) was 8830 nM. For the same compound, the “binding to GMPPNP–KRAS” value (GMPPNP–KRAS) was “neither RMC-7977 nor CYPA alone exhibited any measurable binding”, the “pERK suppression over time” value [2] was “sustained pERK suppression” and the EC50 (KRAS^G12A) was 102 nM. For the same compound, the EC50 (NRAS WT) was 57.7 nM, the EC50 (HRAS^G13R) was 23.7 nM and the EC50 (NRAS^Q61R) was 181 nM. The “Cellular nano-BRET of PI3K⍺ (full-length) binding to KRAS” value (shortened to “Cellular nano-BRET of PI3K⍺”) (KRAS–PI3Kα [3]; RMC-7977 4.115 nM) was 19.5671 and 18.6162 and 18.8909 and 19.2958, the “Cellular nano-BRET of PI3K⍺” value (KRAS–PI3Kα [3]; RMC-7977 12.346 nM) was 17.0686 and 16.4926 and 17.3848 and 16.3061 and 17.5986 and 16.6607 and the “Cellular nano-BRET of PI3K⍺” value (KRAS–PI3Kα [3]; RMC-7977 37.037 nM) was 14.0491 and 14.079 and 13.7071 and 13.4685 and 14.6716 and 13.9571. The “Cellular nano-BRET of PI3K⍺” value (KRAS–PI3Kα [3]; RMC-7977 111.111 nM) was 13.3096 and 12.8133 and 13.2135 and 13.4943 and 13.3044 and 13.1946, the “Cellular nano-BRET of PI3K⍺” value (KRAS–PI3Kα [3]; RMC-7977 333.333 nM) was 13.0302 and 13.2252 and 12.7334 and 12.2876 and 12.5409 and 12.8603 and the “Cellular nano-BRET of PI3K⍺” value (KRAS–PI3Kα [3]; RMC-7977 1000.000 nM) was 12.5669 and 12.7724 and 12.7825 and 12.8803 and 12.1527 and 13.0533. For the same compound, the “Cellular nano-BRET of PI3K⍺” value (KRAS–PI3Kα [4]; RMC-7977 4.115 nM) was 18.9 and 18.4569 and 18.8341 and 18.1839 and 17.8374 and 17.916, the “Cellular nano-BRET of PI3K⍺” value (KRAS–PI3Kα [4]; RMC-7977 12.346 nM) was 15.8416 and 16.2344 and 15.8041 and 16.4517 and 15.615 and 15.4215 and the “Cellular nano-BRET of PI3K⍺” value (KRAS–PI3Kα [4]; RMC-7977 37.037 nM) was 13.5244 and 14.2699 and 13.7436 and 13.7375 and 14.0918 and 13.7581. For the same compound, the “Cellular nano-BRET of PI3K⍺” value (KRAS–PI3Kα [4]; RMC-7977 111.111 nM) was 13.3801 and 13.6296 and 13.7851 and 13.3968 and 13.4702 and 13.5585, the “Cellular nano-BRET of PI3K⍺” value (KRAS–PI3Kα [4]; RMC-7977 333.333 nM) was 13.479 and 13.457 and 13.6054 and 13.4472 and 13.3596 and 13.441 and the “Cellular nano-BRET of PI3K⍺” value (KRAS–PI3Kα [4]; RMC-7977 1000.000 nM) was 13.0371 and 13.4964 and 13.2247 and 13.6424 and 13.499 and 13.5185. The “Cellular nano-BRET of PI3K⍺” value (KRAS–PI3Kα [5]; RMC-7977 12.346 nM) was 15.8391 and 14.8964 and 15.0849 and 14.7399 and 14.2306 and 14.9536, the “Cellular nano-BRET of PI3K⍺” value (KRAS–PI3Kα [5]; RMC-7977 37.037 nM) was 13.3166 and 13.8897 and 13.2531 and 13.6566 and 13.0465 and 13.0111 and the “Cellular nano-BRET of PI3K⍺” value (KRAS–PI3Kα [5]; RMC-7977 111.111 nM) was 12.9631 and 12.8542 (2×) and 12.751 and 12.7145 and 12.5362. The “Cellular nano-BRET of PI3K⍺” value (KRAS–PI3Kα [5]; RMC-7977 333.333 nM) was 12.4418 and 12.5115 and 12.0796 and 12.2384 and 12.3217 and 12.5478 and the “Cellular nano-BRET of PI3K⍺” value (KRAS–PI3Kα [5]; RMC-7977 1000.000 nM) was 12.9103 and 12.8341 and 12.4299 and 12.848 and 12.6569 and 12.4165.
